Experimental data published in patent US20080214558A1, “PYRIMIDINE-2,4-DIAMINE DERIVATIVES AND THEIR USE AS JAK2 KINASE INHIBITORS” (SUPERGEN, INC., priority 2007, published 2008).
pEC50, pIC50: −log10 of the molar value.

Tests used:
[1] = tested on: STAT5-phospho-Y694 in HEL cells expressing the V617F mutant of JAK2; experiment: Western blot of STAT5 phosphorylation in HEL cells expressing JAK2 V617F; format: cell-based; details: Homo sapiens, 24 hours, Western blot densitometry, read-out: EC50 for reduction of STAT5 phosphorylation
Procedure: (§1) In order to detect specific inhibition of JAK2 enzyme in cell culture, Western blot assays may also be performed. For this, cells which have been treated with a potential JAK2 inhibitor are lysed with a buffer specific for the isolation and preservation of proteins (1% Nonidet P-40, 120 mM NaCl, 30 mM Tris pH 7.4, 1:100 Protease Inhibitor Cocktail III [Calbiochem/EMD Biosciences], 1:100 Phosphatase Inhibitor Cocktail 1 [Sigma-Aldrich, Saint Louis, Mo.], 1:100 Phosphatase Inhibitor Cocktail 2 [Sigma-Aldrich, Saint Louis, Mo.]). The protein concentration in these lysates is then quantified using the BCA Protein Assay Kit (Pierce). Known amounts of protein, e.g. 50 ug, are loaded onto 10% SDS-polyacrylamide gels and are subjected to reducing, denaturing SDS-PAGE. Electrophoresed proteins are transferred to a nitrocellulose membrane, which is then probed with antibodies to STAT5, pSTAT5 (Tyr 694), STAT3, and pSTAT3 (Tyr 705). As STAT5 and STAT3, at Tyrosine 694 and Tyrosine 705 respectively, are substrates for JAK2, measuring the amount of phosphorylation at these sites in treated cells provides a means by which to evaluate the efficacy of JAK2 inhibitors.
Briefly, HEL cells were plated in 25 cm^2 tissue culture flasks and incubated in the presence of varying concentrations of Compound Nos. 1 or 2 for 24 hours. Following incubation, cells were lysed and total protein isolated and quantified. 50 μg of total protein was electrophoresed and transferred to nitrocellulose membrane, at which point Western Blot analysis was performed using an antibody to STAT5-phospho-Y694. Comparisons to total STAT5 were made. Densitometry analysis was performed in order to quantify the amount of STAT5 phosphorylation in these treated cells.

[2] = biological target: T1, JAK2 WT (Homo sapiens, UniProt O60674); experiment: Invitrogen SelectScreen profiling, wild-type JAK2; format: biochemical; details: read-out: IC50 against wild-type JAK2 (SelectScreen)
T1 construct: These enzymes include both the JH1 and JH2 homology regions of the protein; purchased Invitrogen Corporation (SelectScreen assay service, Carlsbad, Calif.)
Source text: (§2) The JAK2 V617F mutant isoform has recently come into focus for its role in neoplastic transformation. Thus, compounds may also be testing using the SelectScreen™ assay service (Invitrogen Corporation, Carlsbad, Calif.), which includes both wild-type and V617F mutant isoforms of JAK2. These enzymes include both the JH1 and JH2 homology regions of the protein, and differ only at amino acid 617.

[3] = biological target: T2, JAK2 kinase (Homo sapiens, UniProt O60674); experiment: JAK2 kinase inhibition assay (Promega Kinase-Glo); format: biochemical; details: read-out: IC50 against JAK2 kinase (Promega Kinase-Glo assay)
Source text: One illustrative manner in which JAK2 kinase activity can be determined is by quantifying the amount of ATP remaining in solution after an in vitro JAK2 kinase reaction, such as the Kinase-Glo Assay Kit (Promega, Inc., Madison, Wis.). The amount of ATP remaining in the solution after the kinase reaction serves as a substrate for the luciferase to catalyze luciferin to oxyluciferin plus one photon of light. Thus, the luminescent signal read by the Luminoskan Ascent Instrument (Thermo Electron Corp., Milford, Mass.) correlates with the amount of ATP present after the kinase reaction and inversely correlates with the amount of kinase activity. This assay is efficient at determining the IC50 values of kinase inhibitors against the JAK2 kinase. These assays are set up in duplicate 50 ul volumes in white, flat bottom 96 well plates. Inhibitors are added to the solution of 1× kinase buffer, 6 uM ATP, 62.5 uM JAK2-specific substrate, 30 ng of active JAK2 enzyme, and water in serial dilutions ranging from micromolar to nanomolar concentrations. This solution is incubated at 30 degrees Celsius at 360 rpm for two hours. Following the incubation, 50 ul of Kinase-Glo reagent is added to each well, including all positive and negative control wells, and incubated at room temperature for 15 minutes. […] The IC50 values can then be calculated for each inhibitor tested.
IC50 values against JAK2 kinase (using the Promega Kinase-Glo assay) were measured for Compound Nos. 1-4, 1-7, 1-11 and 1-17.

[4] = biological target: T2, JAK2 kinase; experiment: Radiometric IC50Profiler assay (Millipore-Upstate); format: biochemical; design: purchased Millipore-Upstate (KinaseProfiler / IC50Profiler assay service, Dundee, UK); details: read-out: IC50 (IC50 Profiler data)
Procedure: Compounds may also be tested using a radiometric assay; namely, the KinaseProfiler™ and IC50Profiler™ assay services (Millipore-Upstate, Dundee, UK). Briefly, compounds are tested at a single concentration (for single-point screening) or at a number of concentrations (for IC50 determinations) against recombinant JAK2 enzyme in the presence of radiolabeled ATP.

[5] = biological target: T3, JAK2 V617F (Homo sapiens, UniProt O60674, V617F); experiment: Invitrogen SelectScreen profiling, mutant JAK2; format: biochemical; details: read-out: IC50 against mutant JAK2 V617F (SelectScreen)
T3 construct: These enzymes include both the JH1 and JH2 homology regions of the protein; purchased Invitrogen Corporation (SelectScreen assay service, Carlsbad, Calif.)
Source text: as §2

[6] = tested on: various cancer cell lines; experiment: Cell-Titer-Glo cell survival/proliferation assay; format: cell-based; details: screened between 300 nM and 10 nM, read-out: IC50 from % survival (Cell-Titer-Glo)
Procedure: Cell culture-based assays can be used to evaluate the ability of compounds of the invention to inhibit one or more cellular activities, such as cancer cell growth and/or survival. Numerous cancer cell lines can be obtained from the American Type Culture Collection (ATCC) and other sources. Briefly, cells are seeded into 96-well, tissue-culture treated, opaque white plates (Thermo Electron, Vantaa, Finland), at between 600 and 14000 cells per well, depending on the speed of cell proliferation, in 100 ul of appropriate growth medium (determined by the ATCC). Cells are then exposed to the appropriate concentration of drug and allowed to grow in its presence for 96 hours. Following this, 100 ul of Cell-Titer-Glo reagent (Promega, Inc., Madison, Wis.) is added to each well. Plates are then shaken for 2 minutes at room temperature to allow for cell lysis and incubated for 10 minutes at room temperature to stabilize the luminescent signal. Similar to the Kinase-Glo assay reagent from Promega, this reagent contains both luciferase enzyme and its substrate luciferin. Luciferase, activated by ATP in the cell lysate, catalyzes the conversion of luciferin to oxyluciferin, a reaction which produces light. The amount of light produced is proportionate to the amount of ATP in the cell lysate, which is itself proportional to cell number and gives an index of cellular proliferation.
Compound Nos. 1-4, 1-7, 1-11 and 1-17 were screened at a dilution range between 300 nM and 10 nM as JAK2 inhibitors, with percent survival being determined using the Cell-Titer-Glo Assay.

[7] = tested on: STAT5-phospho-Y694 in AGS gastric cancer cell line; experiment: Western blot of STAT5 phosphorylation in AGS cells; format: cell-based; details: 24 hours, 5-10 uM, Western blot densitometry
Procedure: as §1, with “Electrophoresed proteins are transferred to a nitrocellulose membrane, which is then probed with antibodies to STAT5, pSTAT5 (Tyr 694), STAT3, and pSTAT3 (Tyr 705). As STAT5 and STAT3, at Tyrosine 694 and Tyrosine 705 respectively, are substrates for JAK2, measuring the amount of phosphorylation at these sites in treated cells provides a means by which to evaluate the efficacy of JAK2 inhibitors.” left out
(§3) In this example, Compound 1-4 is shown to reduce the JAK2-dependent phosphorylation of STAT3 and STAT5 in the AGS gastric cancer cell line. […] Following incubation, cells were lysed and total protein isolated and quantified. […] Densitometry analysis was performed in order to quantify the amount of STAT3 and STAT5 phosphorylation in these treated cells. Phospho-STAT3 and phospho-STAT5 were compared to total STAT3 and STAT5 and the proportion of STAT phosphorylation relative to untreated controls was determined.

[8] = tested on: STAT3-phospho-Y705 in AGS gastric cancer cell line; experiment: Western blot of STAT3 phosphorylation in AGS cells; format: cell-based; details: 24 hours, 5-10 uM, Western blot densitometry
Procedure: as §1, with “Electrophoresed proteins are transferred to a nitrocellulose membrane, which is then probed with antibodies to STAT5, pSTAT5 (Tyr 694), STAT3, and pSTAT3 (Tyr 705). As STAT5 and STAT3, at Tyrosine 694 and Tyrosine 705 respectively, are substrates for JAK2, measuring the amount of phosphorylation at these sites in treated cells provides a means by which to evaluate the efficacy of JAK2 inhibitors.” left out
as §3

[9] = tested on: nuclear STAT3 in AGS gastric cancer cells; experiment: STAT3 nuclear translocation high-content assay (STAT3 HitKit, ArrayScan VTi); format: cell-based
Procedure: When STAT3 is phosphorylated by JAK2, it forms a homodimer and is translocated to the nucleus to effect transcription of a number of target genes involved in cell proliferation. AGS gastric cancer cells were inoculated onto 96 well plates, and incubated in the presence of 5 μM Compound 1-4 for 1, 5 or 24 hours. Following incubation, cells were stained using the STAT3 HitKit (Thermo-Fisher) and detected using the Molecular Translocation BioApplication on a ArrayScan VTi high-content screening instrument (Thermo-Fisher). Nuclei were pseudostained blue (Hoechst) and STAT3 was pseudostained green (FITC).
Nuclear STAT3 was reduced by greater than 50% 24 h after treatment with Compound 1-4 when compared with nuclear STAT3 levels in untreated samples.

T3 sequence (O60674 532-1132 V617F limits assumed): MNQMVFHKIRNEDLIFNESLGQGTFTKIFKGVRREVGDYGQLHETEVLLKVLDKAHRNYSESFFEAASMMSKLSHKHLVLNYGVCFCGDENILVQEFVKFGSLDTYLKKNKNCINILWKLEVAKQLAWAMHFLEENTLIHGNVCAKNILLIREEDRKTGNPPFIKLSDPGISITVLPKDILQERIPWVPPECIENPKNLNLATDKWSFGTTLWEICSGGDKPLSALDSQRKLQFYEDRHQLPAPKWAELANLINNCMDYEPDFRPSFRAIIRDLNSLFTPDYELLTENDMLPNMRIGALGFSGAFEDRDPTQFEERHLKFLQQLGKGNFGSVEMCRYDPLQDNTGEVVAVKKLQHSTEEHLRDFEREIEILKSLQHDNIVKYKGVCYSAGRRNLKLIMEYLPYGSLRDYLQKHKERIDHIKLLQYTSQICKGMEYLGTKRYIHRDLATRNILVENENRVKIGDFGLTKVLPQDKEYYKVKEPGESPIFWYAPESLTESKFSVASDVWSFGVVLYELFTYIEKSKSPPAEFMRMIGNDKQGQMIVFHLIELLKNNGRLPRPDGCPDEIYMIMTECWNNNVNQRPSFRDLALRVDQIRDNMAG
T1 sequence (O60674 532-1132 limits assumed): as the sequence (O60674 532-1132 V617F limits assumed) above, with F86V counted along it
T2 sequence (O60674 whole entry): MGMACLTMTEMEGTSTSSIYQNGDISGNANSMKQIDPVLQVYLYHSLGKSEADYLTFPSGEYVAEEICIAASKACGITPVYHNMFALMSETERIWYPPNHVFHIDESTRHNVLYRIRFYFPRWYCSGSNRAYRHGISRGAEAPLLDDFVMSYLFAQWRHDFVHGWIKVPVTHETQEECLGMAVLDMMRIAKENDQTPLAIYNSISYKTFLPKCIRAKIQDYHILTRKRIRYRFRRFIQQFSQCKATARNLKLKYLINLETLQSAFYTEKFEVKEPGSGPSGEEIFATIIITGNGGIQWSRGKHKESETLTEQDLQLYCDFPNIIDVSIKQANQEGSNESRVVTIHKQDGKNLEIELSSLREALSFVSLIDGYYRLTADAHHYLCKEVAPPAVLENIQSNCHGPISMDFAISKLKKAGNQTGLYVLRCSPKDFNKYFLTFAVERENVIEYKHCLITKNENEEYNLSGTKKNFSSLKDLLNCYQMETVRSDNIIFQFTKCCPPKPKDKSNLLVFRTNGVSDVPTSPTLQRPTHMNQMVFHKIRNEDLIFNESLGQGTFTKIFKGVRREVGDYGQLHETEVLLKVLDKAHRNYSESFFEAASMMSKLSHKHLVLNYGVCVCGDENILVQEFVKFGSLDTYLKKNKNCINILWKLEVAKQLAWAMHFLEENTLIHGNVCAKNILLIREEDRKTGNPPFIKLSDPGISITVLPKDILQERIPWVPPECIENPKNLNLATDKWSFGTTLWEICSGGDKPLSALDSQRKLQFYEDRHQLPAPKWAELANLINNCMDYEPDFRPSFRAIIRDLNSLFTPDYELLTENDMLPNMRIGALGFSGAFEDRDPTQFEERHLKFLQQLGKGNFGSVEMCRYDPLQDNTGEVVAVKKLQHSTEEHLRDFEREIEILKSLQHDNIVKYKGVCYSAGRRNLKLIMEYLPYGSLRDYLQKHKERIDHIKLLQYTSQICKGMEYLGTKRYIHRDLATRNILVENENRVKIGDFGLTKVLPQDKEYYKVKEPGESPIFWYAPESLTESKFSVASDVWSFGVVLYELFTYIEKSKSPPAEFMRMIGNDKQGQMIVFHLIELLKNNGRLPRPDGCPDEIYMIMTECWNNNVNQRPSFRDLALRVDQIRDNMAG

| pEC50 [1] | pIC50 [2] | pIC50 [3] | pIC50 [4] | pIC50 [5] | SMILES | pIC50 [6] | STAT5 phosphorylation relative to untreated controls [7] | STAT3 phosphorylation relative to untreated controls [8] | STAT3 staining localisation ([9]; 5 μM, 1, 5 or 24 hours) | Reduction of nuclear STAT3 compared with untreated samples ([9]; 5 μM, 24 h after treatment) |
| --- | --- | --- | --- | --- | --- | --- | --- | --- | --- | --- |
| 7.18 | > 6.00 | > 6.00 | > 6.00 | > 6.00 | CN1CCN(c2ccc(Nc3nccc(Nc4cccc(CC#N)c4)n3)cc2F)CC1 [Compound 1-11, 2-(3-(2-(3-Fluoro-4-(4-methylpiperazin-1-yl)phenylamino)pyrimidin-4-ylamino)phenyl)acetonitrile] | > 8.00 |  |  |  |  |
| 6.58 | > 6.00 | > 6.00 | > 6.00 | > 6.00 | CN1CCN(C(=O)c2ccc(Nc3nccc(Nc4cccc(CC#N)c4)n3)cc2)CC1 [Compound 1-17, 2-(3-(2-(4-(4-methylpiperazine-1-carbonyl)phenylamino)pyrimidin-4-ylamino)phenyl)acetonitrile] | > 8.00 |  |  |  |  |
| 6.52 | > 6.00 | > 6.00 | > 6.00 | > 6.00 | CN1CCN(c2ccc(Nc3nccc(Nc4ccc(F)c(Cl)c4)n3)cc2)CC1 [Compound 1-4, N4-(3-chloro-4-fluorophenyl)-N2-(4-(4-methylpiperazin-1-yl)phenyl)pyrimidine-2,4-diamine] | > 8.00 | reduced levels | reduced levels | confined outside the nucleus | greater than 50% |
| 8.40 | > 6.00 | > 6.00 | > 6.00 | > 6.00 | CN1CCN(c2ccc(Nc3nccc(Nc4cccc(CC#N)c4)n3)cc2)CC1 [Compound 1-7, 2-(3-(2-(4-(4-Methylpiperazin-1-yl)phenylamino)pyrimidin-4-ylamino)phenyl)acetonitrile] | > 8.00 |  |  |  |  |
